Results as given in ChEMBL document CHEMBL4354827, “Discovery of Novel, Potent, Brain-Permeable, and Orally Efficacious Positive Allosteric Modulator of α7 Nicotinic Acetylcholine Receptor [4-(5-(4-Chlorophenyl)-4-methyl-2-propionylthiophen-3-yl)benzenesulfonamide]: Structure-Activity Relationship and Preclinical Characterization” (J Med Chem, 2020).
Active and inactive are the calls of the source. The rule behind the calls is not given here.

Tests used:
[1] = Elimination half life in human at 7.5 to 100 mg; format: ADME; conditions: read-out: beta t1/2
[2] = AUClast in Beagle dog at 10 mg/kg, po after 0.25 to 144 hrs by LC-MS/MS analysis; format: ADME, organism-based, Canis lupus familiaris; parameters: time upper 144 hr, dose 10 mg/kg, time lower 0.25 hr, route oral; conditions: in vivo
Rattus norvegicus [3] = assay: Memory enhancement effect in scopolamine-induced Wistar rat model of amnesia assessed as exploration time for object1 in acquisition trial at 0.05 mg/kg, po administered as single dose and measured on day 8 by novel object recognition test (reference value: 16.11 sec); format: functional
[4] = molecular target: Neuronal acetylcholine receptor subunit alpha-7 (Homo sapiens, UniProt P36544); assay: Positive allosteric modulatory activity against alpha7 nAChR in human IMR-32 cells assessed as potentiation of PNU-282987-induced Ca2+ […] in presence of alpha-bungarotoxin/methyllycaconitine by FLIPR assay; format: cell-based
[5] = Protein binding in dog plasma assessed as unbound fraction at 5 uM incubated for 16 hrs under shaking condition by LC/MS/MS based rapid equilibrium dialysis method; format: ADME, cell-free, Canis lupus familiaris
[6] = Drug concentration in Wistar rat brain at 10 mg/kg, po after 8 hrs by LC-MS/MS analysis; format: ADME, organism-based; conditions: read-out: Drug uptake
[7] = Unbound brain-to-plasma concentration ratio in Wistar rat at 10 mg/kg, po after 24 hrs by LC-MS/MS analysis; format: ADME, organism-based; conditions: read-out: K(p,uu,brain)
[8] = Protein binding in rat plasma assessed as unbound fraction at 5 uM incubated for 16 hrs under shaking condition by LC/MS/MS based rapid equilibrium dialysis method; format: ADME, cell-free
[9] = AUC (0 to 144 hrs) in Wistar rat at 1 mg/kg, iv after 0.083 to 144 hrs by LC-MS/MS analysis; format: ADME, organism-based; parameters: time < 144 hr, dose 1 mg/kg, route intravenous; conditions: in vivo
[10] = Oral bioavailability in BALB/c mouse at 10 mg/kg after 0.25 to 144 hrs by LC-MS/MS analysis; format: ADME, organism-based; conditions: in vivo
[11] = AUC (0 to 144 hrs) in Wistar rat at 10 mg/kg, po after 0.25 to 144 hrs by LC-MS/MS analysis; format: ADME, organism-based; parameters: dose 10 mg/kg, time < 144 hr, route oral; conditions: in vivo
[12] = Drug level in scopolamine-induced Sprague-Dawley rat brain at 0.05 mg/kg, po for 7 days; format: ADME, organism-based; conditions: read-out: Drug uptake
Rattus norvegicus [13] = assay: Memory enhancement effect in scopolamine-induced Wistar rat model of amnesia assessed as increase in discrimination index at 0.5 mg/kg, po for 7 days and measured on day 8 by novel object recognition test (reference value: 0.21); format: functional
[14] = Clearance in BALB/c mouse at 1 mg/kg, iv after 0.083 to 144 hrs by LC-MS/MS analysis; format: ADME, organism-based; conditions: in vivo
[15] = Drug concentration in Wistar rat brain at 10 mg/kg, po after 4 hrs by LC-MS/MS analysis; format: ADME, organism-based; conditions: read-out: Drug uptake
[16] = Brain to plasma permeability coefficient, Kp in Wistar rat at 10 mg/kg, po after 8 hrs by LC-MS/MS analysis; format: ADME, organism-based
[17] = Tmax in Wistar rat plasma at 10 mg/kg, po after 1 to 144 hrs by LC-MS/MS analysis; format: ADME, organism-based
Rattus norvegicus [18] = assay: Improvement in social recognition scopolamine-induced Sprague-Dawley rat model of amnesia assessed as increase in reduction in social investigation time at 0.50 mg/kg, po for 7 days measured after 24 hrs (Rvb =6.59%); format: functional; parameters: scale not given: the % may be the effect or the level left
[19] = Drug metabolism in human pooled liver microsomes assessed as metabolic rate at 1 uM preincubated for 5 mins followed by NADPH addition after 30 mins by LC-MS/MS analysis; format: ADME, Microsome; conditions: 0.5 h
[20] = Oral bioavailability in Beagle dog at 10 mg/kg after 0.25 to 144 hrs by LC-MS/MS analysis; format: ADME, organism-based, Canis lupus familiaris; conditions: in vivo
Rattus norvegicus [21] = assay: Memory enhancement effect in time-delay induced Wistar rat model of amnesia assessed as exploration time for object2 at 1 mg/kg, po administered as single dose after acquisition trial by novel object recognition test (reference value: 21.07 sec); format: functional
Rattus norvegicus [22] = assay: Memory enhancement effect in scopolamine-induced Wistar rat model of amnesia assessed as increase in exploration time for novel object in retention trial at 0.15 mg/kg, po administered as single dose and measured on day 9 by novel object recognition test (reference value: 12.09 sec); format: functional
[23] = Cmax in Beagle dog at 1 mg/kg, iv after 0.083 to 144 hrs by LC-MS/MS analysis; format: ADME, organism-based, Canis lupus familiaris; parameters: dose 1 mg/kg, route intravenous; conditions: in vivo
[24] = Ratio of AUCt in brain to plasma in Wistar rat at 10 mg/kg, po after 144 hrs by LC-MS/MS analysis; format: ADME, organism-based
Rattus norvegicus [25] = assay: Memory enhancement effect in scopolamine-induced Wistar rat model of amnesia assessed as exploration time for object2 in acquisition trial at 0.15 mg/kg, po administered as single dose and measured on day 8 by novel object recognition test (reference value: 15.63 sec); format: functional
Rattus norvegicus [26] = assay: Memory enhancement effect in time-delay induced Wistar rat model of amnesia assessed as exploration time for novel object at 1 mg/kg, po administered as single dose after acquisition trial by novel object recognition test (reference value: 12.81 sec); format: functional
Rattus norvegicus [27] = assay: Improvement in social recognition time delay-induced Sprague-Dawley rat model of amnesia assessed as reduction in recognition index 3 mg/kg, po administered as single dose prior to 1 hr training and measured after 30 mins (reference value: 1); format: functional
[28] = Half life in Wistar rat at 10 mg/kg, po after 0.25 to 144 hrs by LC-MS/MS analysis; format: ADME, organism-based; conditions: in vivo
[29] = Protein binding in human plasma assessed as unbound fraction at 5 uM incubated for 16 hrs under shaking condition by LC/MS/MS based rapid equilibrium dialysis method; format: ADME, cell-free
Cytochrome P450 1A2 = molecular target: T1, Cytochrome P450 1A2 (Homo sapiens, UniProt P05177); assay: Inhibition of CYP1A2 (unknown origin) up to 10 uM; format: ADME
T1 sequence (P05177 whole entry): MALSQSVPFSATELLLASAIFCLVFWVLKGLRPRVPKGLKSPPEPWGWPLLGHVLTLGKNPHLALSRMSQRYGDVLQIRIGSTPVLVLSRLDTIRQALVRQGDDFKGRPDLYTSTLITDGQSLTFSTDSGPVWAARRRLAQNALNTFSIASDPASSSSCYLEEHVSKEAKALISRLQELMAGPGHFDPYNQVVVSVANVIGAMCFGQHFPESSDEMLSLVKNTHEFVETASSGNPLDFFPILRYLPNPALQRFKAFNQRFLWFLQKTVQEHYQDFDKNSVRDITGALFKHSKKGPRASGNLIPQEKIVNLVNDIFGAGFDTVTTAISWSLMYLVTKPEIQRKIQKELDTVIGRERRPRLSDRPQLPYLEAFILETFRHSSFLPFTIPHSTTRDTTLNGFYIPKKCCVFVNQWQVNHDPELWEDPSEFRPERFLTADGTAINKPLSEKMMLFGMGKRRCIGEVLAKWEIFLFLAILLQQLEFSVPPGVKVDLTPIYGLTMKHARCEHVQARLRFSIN

[30] = Volume of distribution at steady state in BALB/c mouse at 1 mg/kg, iv after 0.083 to 144 hrs by LC-MS/MS analysis; format: ADME, organism-based; conditions: in vivo, read-out: Vdss
[31] = Drug concentration in Wistar rat plasma at 10 mg/kg, po after 48 hrs by LC-MS/MS analysis; format: ADME, organism-based

Chain of Neuronal acetylcholine receptor subunit alpha-7 (P36544 whole entry): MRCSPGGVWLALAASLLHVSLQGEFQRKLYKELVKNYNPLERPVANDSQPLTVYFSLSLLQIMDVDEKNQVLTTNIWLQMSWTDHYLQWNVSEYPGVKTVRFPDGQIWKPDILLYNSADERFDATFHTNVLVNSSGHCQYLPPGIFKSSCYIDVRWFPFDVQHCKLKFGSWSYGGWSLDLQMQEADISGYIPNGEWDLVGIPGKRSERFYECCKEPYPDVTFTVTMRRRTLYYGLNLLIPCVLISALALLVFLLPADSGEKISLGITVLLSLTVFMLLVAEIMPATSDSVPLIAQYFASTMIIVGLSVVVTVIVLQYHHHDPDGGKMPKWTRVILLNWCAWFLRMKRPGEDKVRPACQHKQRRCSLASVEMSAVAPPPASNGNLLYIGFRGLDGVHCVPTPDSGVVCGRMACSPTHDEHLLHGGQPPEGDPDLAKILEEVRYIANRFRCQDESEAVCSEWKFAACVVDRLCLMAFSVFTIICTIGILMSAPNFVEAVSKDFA

SMILES: CCC(=O)c1sc(-c2ccc(Cl)cc2)c(C)c1-c1ccc(S(N)(=O)=O)cc1
- half-life [1]: 930 to 4620 min
- AUC(0-t) [2]: 282 µM·h
- Time (Rattus norvegicus [3]): 16.07 s
- Activity [4]: inactive
- fraction unbound at 16 h, 5 µM [5]: 0.0031
- concentration at 8 h [6]: 6.39 µM
- Kp uu at 24 h [7]: 1.07
- fraction unbound at 16 h, 5 µM [8]: 0.0058
- AUC(0-t) at 144 h [9]: 27 µM·h
- bioavailability [10]: 57%
- AUC(0-t) at 144 h [11]: 201 µM·h
- concentration at 168 h [12]: 250 nM
- Activity_index (Rattus norvegicus [13]): 0.45
- clearance [14]: 3.6 mL/min/kg
- concentration at 4 h [15]: 9.22 µM
- Kp at 8 h [16]: 7.7
- Tmax [17]: 1 h
- Activity (Rattus norvegicus [18]): 25.35%
- Drug metabolism [19]: 0.01 nmol/min/mg
- bioavailability [20]: 60%
- Time (Rattus norvegicus [21]): 25.36 s
- Time (Rattus norvegicus [22]): 12.8 s
- Cmax [23]: 3000 nM
- Kp at 144 h [24]: 9
- Time (Rattus norvegicus [25]): 13.41 s
- Time (Rattus norvegicus [26]): 24.46 s
- Activity_index (Rattus norvegicus [27]): 0.47
- half-life [28]: 2700 min
- fraction unbound at 16 h, 5 µM [29]: 0.0015
- inhibition (INH) (Cytochrome P450 1A2): Not Active
- Vd [30]: 4 L/kg
- concentration at 48 h [31]: 620 nM
